# Laboratory results published in PubChem BioAssay (NCI).
# “And” between values parts separate entries of the source, which are not always exact repeats. Identical values can stand only once.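 Tested at 5 concentrations; 48 h exposure; 96-well plates; endpoints linearly interpolated, else capped at highest concentration. Here, GI50 denotes the concentration required for 50% inhibition of growth. TGI is the concentration that stops growth completely.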 *1 amine or outer side, *2 acyl side, *3 side chain or, on linkers, in order; H or OH if unused. Where a SMILES comes first, the peptide text is derived from it. Bridges are numbered along the chain shown (N, C = ends). [ ]: non-standard residue; d: D form. The star is where a group is joined. Phe(3-Me) = Cc1cccc(C[C@H](N)C(=O)O)c1; NH(4-Cl-2-F-phenyl) = Fc1cc(Cl)ccc1N*; Pro(4R-Me) = C[C@H]1CN[C@H](C(=O)O)C1; Propanoyl(3-NMe2) = CN(C)CCC(=O)*; Hyp = O=C(O)[C@@H]1C[C@@H](O)CN1; aThr = C[C@H](O)[C@H](N)C(=O)O; Pip = O=C(O)[C@@H]1CCCCN1; CO = O=C([*:1])[*:2]
# What was measured:
# Experiment in all cases: NCI-60 cell line screen, 48 h
# SF-539 CNS = system: SF-539 CNS
# HCC-2998 colon = system: HCC-2998 colon
# NCI-H23 lung = system: NCI-H23 lung
# U251 CNS = system: U251 CNS
# BT-549 breast = system: BT-549 breast
# CAKI-1 renal = system: CAKI-1 renal
# HS 578T breast = system: HS 578T breast
# TK-10 renal = system: TK-10 renal
# UACC-62 melanoma = system: UACC-62 melanoma
# M14 melanoma = system: M14 melanoma
Structure (SMILES),GI50 (SF-539 CNS) [µM],TGI (SF-539 CNS),GI50 (HCC-2998 colon) [µM],TGI (HCC-2998 colon),GI50 (NCI-H23 lung) [µM],TGI (NCI-H23 lung),GI50 (U251 CNS) [µM],TGI (U251 CNS),TGI (BT-549 breast) [µM],GI50 (CAKI-1 renal) [µM],TGI (CAKI-1 renal),GI50 (HS 578T breast) [µM],GI50 (TK-10 renal) [µM],TGI (TK-10 renal),TGI (UACC-62 melanoma),GI50 (M14 melanoma) [µM],TGI (M14 melanoma),GI50 (BT-549 breast) [µM],TGI (HS 578T breast) [µM],GI50 (UACC-62 melanoma) [µM]
S=C(N/N=C(/c1ccccc1)c1ccccn1)Nc1cccc(Cl)c1,1.12,2.97 µM and 5.99 µM,2,5.04 µM and 5.92 µM,1.35,5.58 µM and 16.8 µM,0.0513,2.91 µM and 4.58 µM,6.22,0.832,8.78 µM and 6.33 µM,0.0125,0.0277,2.41 µM and 6 µM,0.793 µM and 2.66 µM,0.0154,2.24 µM and 1.89 µM,–,–,–
COc1ccc(CNc2nc(NCc3ccc(OC)cc3)c3n[nH]c(C(C)C)c3n2)cc1,5.98,23.5 µM,2.43,5.99 µM,4.09,18.3 µM,4.22,21.1 µM,12.2,6.44,> 100 µM,2.97,8.29,24.4 µM,20 µM,2.28,5 µM,3.47,26,5.94
CCN1CCN(C(=O)[C@]23CCC(C)(C)C[C@@H]2C2=CC[C@@H]4[C@@]5(C)C/C(=C/c6cccnc6)C(=O)C(C)(C)[C@@H]5CC[C@@]4(C)[C@]2(C)CC3)CC1,1.62,3 µM,1.58,3.12 µM,2.1,5.85 µM,1.58,3.11 µM,2.88,2.08,11.8 µM,1.83,3.86,15.4 µM,2.83 µM,1.6,3.15 µM,1.47,5.37,1.28
Cc1cccc(C[C@H](NC(=O)Nc2ccc(Cl)cc2F)C(=O)N[C@@H]2C(=O)N3C[C@H](OC(=O)CCN(C)C)C[C@H]3C(=O)N3CCCC[C@H]3C(=O)N[C@@H](C)C(=O)N3C[C@H](C)C[C@H]3C(=O)O[C@H]2C)c1 ({NH(4-Cl-2-F-phenyl)-CO}-[Phe(3-Me)][aThr][Hyp](Propanoyl(3-NMe2))[Pip]A[Pro(4R-Me)]; ester 2-C),0.704,2.17 µM,0.476,1.77 µM,0.519,3.17 µM,0.441,7.27 µM,2.48,0.978,3.59 µM,0.474,2.16,10.6 µM,2.06 µM,0.474,1.89 µM,0.526,3.82,0.569
CCCCCCCCCC(CCCC(O)CC(=O)O)OC1OC(COC2OC(C)C(O)C(O)C2O)C(O)C(O)C1OC1OC(CO)C(O)C(O)C1OC1OC(C)C(O)C(O)C1O (stereo not drawn),> 40,> 40 µM,> 40,> 40 µM,> 40,> 40 µM,> 40,> 40 µM,> 40,> 40,> 40 µM,> 40,> 40,> 40 µM,> 40 µM,> 40,> 40 µM,> 40,> 40,> 40
CC[C@]12CCCN3CC[C@]4(C(=C(C(=O)OC)C1)Nc1ccccc14)[C@@H]32,18.2,37.9 µM,14.6,29 µM,17.1,43.8 µM,15.1,29.6 µM,46.7,11.8,32.8 µM,17.3,19.9,56.7 µM,31 µM,20.5,51.7 µM,19.8,76.1,11.4
COC(=O)C1C2CCCN2OC1(C)CO (stereo not drawn),–,> 100 µM,–,–,–,> 100 µM,–,> 100 µM,> 100,–,> 100 µM,–,–,> 100 µM,> 100 µM,–,> 100 µM,–,> 100,–
O=C(/C=C/c1cccnc1)c1ccccc1O,14.4,34.7 µM,16.2,30 µM,16.9,36 µM,22.2,81.1 µM,28.5,17.3,42.4 µM,35.9,27.6,> 100 µM,35.3 µM,16.9,34.1 µM,14.2,> 100,16.2
CC([O-])C(=O)[O-].NCC1CCC1CN.[Pt+4] (stereo not drawn),> 10,> 10 µM,> 10,> 10 µM,> 10,> 10 µM,> 10,> 10 µM,> 10,> 10,> 10 µM,> 10,> 10,> 10 µM,> 10 µM,> 10,> 10 µM,> 10,> 10,6.87
CC(=O)Nc1sc2c(c1-c1nc3ccccc3s1)CNC2,2.17,8.52 µM,2.58,9.92 µM,2.44,11.8 µM,4.06,30.3 µM,14.7,2.05,> 50 µM,7.05,4.74,24.4 µM,11.7 µM,2.47,9.71 µM,6.83,22.6,2.76
COc1cc(OC)cc(-c2cncn2-c2ccc(-c3nc4cc(OC)c(OC)c(OC)c4s3)cc2)c1,22,> 100 µM,> 100,> 100 µM,9.56,> 100 µM,5.44,> 100 µM,> 100,3.79,> 100 µM,20.9,26.4,> 100 µM,> 100 µM,–,–,6.71,> 100,13.8
O=C1c2ccccc2C(=O)c2c1ccc1c2OCO1,–,> 100 µM,–,> 100 µM,–,> 100 µM,–,> 100 µM,> 100,–,> 100 µM,–,–,> 100 µM,> 100 µM,–,> 100 µM,–,> 100,–
Nc1c(C(=O)Nc2ccccc2)sc2nc3c(cc12)CCCC3,0.452,3.9 µM,1.99,> 37.2 µM,1.08,> 100 µM,0.473,34 µM,> 100,1.13,> 100 µM,2.73,16.8,> 100 µM,> 100 µM,0.487,> 100 µM,3.89,> 100,0.493
C/C(=N\NC(=O)c1ccncc1)c1ccc(O)cc1O,5.67,> 100 µM,3.59,> 100 µM,11.4,> 100 µM,1.59,> 100 µM,> 100,2.37,8 µM,43.3,> 100,> 100 µM,> 100 µM,6.44,> 100 µM,> 100,> 100,3.3
CC1=CC2C(C(C)C)CC1C1C(=O)OC(=O)C21 (stereo not drawn),–,> 100 µM,–,> 100 µM,–,> 100 µM,–,> 100 µM,> 100,–,–,–,–,> 100 µM,> 100 µM,–,> 100 µM,–,> 100,–
Cc1nn(-c2ccc(Br)cc2)c(C)c1CC(=O)c1cc(O)ccc1O,11.5,28 µM,–,–,10.9,35.7 µM,10.1,21.8 µM,38.4,12.2,27.3 µM,22.7,15.5,> 50 µM,11.4 µM,29.6,> 50 µM,15.8,> 50,4.24
O=[N+]([O-])c1ccc(-c2cn(-c3ccc(Cl)cc3)cn2)cc1,–,–,–,> 100 µM,–,> 100 µM,–,> 100 µM,> 100,–,> 100 µM,–,–,67.5 µM,> 100 µM,–,> 100 µM,–,> 100,–
Cc1ccc(NC(=O)c2nc(S(C)=O)oc2-c2ccc(F)cc2)cc1Nc1nccc(-c2cccnc2)n1 (stereo not drawn),1.77,3.71 µM,3.91,13 µM,1.83,4.49 µM,1.98,3.57 µM,4.17,–,–,2.96,2.82,6.25 µM,3.38 µM,1.99,4.34 µM,1.74,8.94,1.8
CCN(CC(COc1ccc2c(c1)[n+]([O-])nc(N)[n+]2[O-])OC(C)=O)C(C)=O (stereo not drawn),–,> 100 µM,–,–,–,> 100 µM,–,> 100 µM,> 100,–,> 100 µM,–,–,> 100 µM,> 100 µM,–,> 100 µM,–,> 100,–
CCc1ccc(Nc2cc(C)nc3nc(C)nn23)cc1,> 100,> 100 µM,> 100,> 100 µM,> 100,> 100 µM,75.2,> 100 µM,> 100,40.1,> 100 µM,39.3,61.7,> 100 µM,> 100 µM,–,–,> 100,> 100,37.7
O=C(CCl)Nc1ccc2c(c1)C(=O)c1ccc(NC(=O)CCl)cc1C2=O,0.301,0.866 µM,1.77,3.79 µM,0.253,0.834 µM,–,–,0.857,0.683,1.98 µM,1.29,1.81,7.33 µM,0.99 µM,0.236,0.781 µM,0.22,9.57,0.299
CSc1nc2c(c(=O)[nH]1)C(c1ccc(Cl)cc1)C1=C(N2)/C(=C/c2ccc(Cl)cc2)CNC1 (stereo not drawn),1.78,3.5 µM,1.96,3.57 µM,2.48,5.84 µM,1.61,3.09 µM,3.68,2.11,5.09 µM,3.6,–,–,4.5 µM,2.23,6.18 µM,1.8,84.1,2.02
O=CC1(C2(C=O)c3ccccc3-c3ccccc32)c2ccccc2-c2ccccc21,2.01,4.37 µM,> 100,> 100 µM,2.11,4.82 µM,2.23,5.6 µM,4.84,1.27,3.62 µM,2.7,2.63,5.51 µM,6.25 µM,–,–,2.01,7.49,2.69
COc1ccc(Nc2ncccc2C(=O)NCc2cn(Cc3cccc(Oc4ccccc4)c3)nn2)cc1,2.79,6.69 µM,2.53,6.85 µM,3.45,> 100 µM,3.91,> 100 µM,> 100,3.41,> 100 µM,5.9,4.59,> 100 µM,> 100 µM,–,–,4.58,> 100,3.13
O=C(CN1CCN(c2ccc(Cl)cc2)CC1)N1CCN(c2nnc(-c3ccccc3)c(-c3ccccc3)n2)CC1,7.65,> 100 µM,9.29,> 100 µM,4,> 100 µM,8.02,> 100 µM,> 100,4.93,> 100 µM,51.6,> 100,> 100 µM,–,> 100,> 100 µM,3.14,> 100,–
C[n+]1ccc(-c2c3nc(c(-c4ccc5c(ccc[n+]5C)c4)c4ccc([nH]4)c(-c4cc[n+](C)cc4)c4nc(c(-c5ccc6c(ccc[n+]6C)c5)c5ccc2[nH]5)C=C4)C=C3)cc1,–,–,49.7,> 50 µM,> 50,> 50 µM,28.8,> 50 µM,> 50,> 50,> 50 µM,42.4,10.1,> 50 µM,> 50 µM,> 50,> 50 µM,35.9,> 50,> 50
